In US6780871B2, “Methods and compositions for treating addiction disorders” (Albany Medical College, priority 2001, dated 2004):

Key:
Type in all cases: in vivo, rat
responding for water = assay: bar-pressing (responding) for water; details: dose of 3 mg/kg, alone, data not shown
[1] = system: morphine self-administration; assay: intravenous morphine self-administration; details: 18-methoxycoronaridine 1 mg/kg i.p., dextromethorphan 5 mg/kg s.c.
Description: Dextromethorphan hydrobromide (5 mg/kg; Sigma/RBI, St. Louis, Mo.) was dissolved in saline and injected subcutaneously 20 minutes before testing. Mecamylamine hydrochloride (1 mg/kg; Sigma/RBI, St. Louis, Mo.) was dissolved in physiological saline and injected intraperitoneally 30 minutes before testing. All rats received two injections. For rats that received a single drug, half of them also received the appropriate saline/vehicle injection corresponding to each of the other two drugs.
Naive female Long-Evans derived rats (250 g; Charles River, N.Y.) were maintained on a normal 12 h light cycle (lights on at 7:00 a.m., lights off at 7:00 p.m.). For all experiments the “Principles of Laboratory Animal Care” (NIH publication No. 85-23, revised 1985, which is hereby incorporated by reference) were followed.
The intravenous self-administration procedure described in Glick et al., “18-MC Reduces Methamphetamine and Nicotine Self-administration in Rats,” NeuroReport 11:2013-2015 (2000) (“Glick I”), which is hereby incorporated by reference, was employed. Briefly, responses on either of two levers (mounted 15 cm apart on the front wall of each operant test cage) were recorded on an IBM compatible computer with a Med Associates, Inc. interface. The intravenous self-administration system consisted of polyethylene-silicone cannulas constructed according to the design of Weeks, “Long-term Intravenous Infusion,” pp. 155-168 in Myers (ed.), Methods in Psychobiology, Vol. 2, New York: Academic Press (1972) (“Weeks”), which is hereby incorporated by reference; Instech harnesses and swivels; and Harvard Apparatus infusion pumps (#55-2222). Shaping of the bar-press response was initially accomplished by training rats to bar-press for water. Cannulas were then implanted in the external jugular vein according to procedures described in Weeks, which is hereby incorporated by reference. Self-administration testing began with a 16-h nocturnal session followed by daily 1-h sessions, 5 days (Monday-Friday) a week. A lever-press response produced a 10 μl infusion of drug solution (0.01 mg of morphine sulfate) in about 0.2 s or a 50 μl infusion of drug solution (0.025 mg of methamphetamine sulfate) in about 1 s. Since all rats generally weighed 250±20 g, each response delivered approximately 0.04 mg/kg of morphine or 0.1 mg/kg of methamphetamine. Experiments to assess the effects of experimental treatments were begun when baseline self-administration rates stabilized (≦10% variation from one day to the next across 5 days), usually after 2 weeks of testing.
Each data point represents the mean (±S.E.M.) percent of baseline of 6-8 rats. Significant differences between baseline and treatment are indicated by an asterisk (paired t-test, P<0.01-0.001).
Each data point represents the mean (±S.E.M.) percent of baseline of 5-8 rats. Significant differences between baseline and treatment are indicated by an asterisk (paired t-test), P<0.05-0.01).

[2] = system: methamphetamine self-administration; assay: intravenous methamphetamine self-administration
[3] = system: nicotine self-administration; assay: nicotine self-administration; details: Example 7, FIGS. 11-12: mecamylamine 0.1 mg/kg i.p., 18-methoxycoronaridine 0.5 mg/kg i.p., dextromethorphan 0.5 mg/kg s.c., bupropion 5 mg/kg i.p.; 5-8 rats

CNC1(C)C2CCC(C2)C1(C)C (stereo not drawn) [mecamylamine]
effect on responding for water (responding for water): decreases responding for water
effect on morphine self-administration (percent of baseline) ([1]; Example 5, FIG. 5: mecamylamine 1 mg/kg i.p., 6-8 rats): none of the drugs administered alone, significantly decreased
effect on morphine self-administration (percent of baseline) ([1]; Example 6, FIG. 8: mecamylamine 1 mg/kg i.p., bupropion 5 mg/kg i.p., 5-8 rats): none of the drugs administered alone, significantly decreased
effect on methamphetamine self-administration (percent of baseline) ([2]; Example 5, FIG. 6: mecamylamine 1 mg/kg i.p., 18-methoxycoronaridine 2 mg/kg i.p., dextromethorphan 5 mg/kg s.c., 6-7 rats): none of the drugs administered alone, significantly decreased
effect on methamphetamine self-administration (percent of baseline) ([2]; Example 6, FIG. 9: mecamylamine 1 mg/kg i.p., 18-methoxycoronaridine 5 mg/kg i.p., dextromethorphan 10 mg/kg s.c., bupropion 10 mg/kg i.p., 5-9 rats): none of the drugs administered alone, significantly decreased
effect on nicotine self-administration (percent of baseline) [3]: none of the drugs administered alone, significantly decreased
